What follows are molecules tested against T1, NLRP3 (Homo sapiens, UniProt Q96P20) (assay: IL-1β Secretion Assay (NLRP3-dependent IL1β secretion in THP1 cells)). Details: PMA-differentiated THP-1 cells; compounds incubated 20 h; 2.5 μM Nigericin 3 h; HTRF IL-1β readout; read-out: IC50 IL-1β Inhibition.
T1 construct: host or cells: THP-1 cells differentiated with PMA
Type: cell-based
In short: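 THP-1 cells differentiated with 100 ng/mL PMA for 24 h, then given compound (7-point 3-fold series, 1:200 from DMSO) for 20 h in RPMI+5% FBS. NLRP3 activated with 2.5 μM nigericin for 3 h; secreted IL-1β measured by HTRF; IC50 from logistic fit of % inhibition.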

T1 sequence (Q96P20 whole entry): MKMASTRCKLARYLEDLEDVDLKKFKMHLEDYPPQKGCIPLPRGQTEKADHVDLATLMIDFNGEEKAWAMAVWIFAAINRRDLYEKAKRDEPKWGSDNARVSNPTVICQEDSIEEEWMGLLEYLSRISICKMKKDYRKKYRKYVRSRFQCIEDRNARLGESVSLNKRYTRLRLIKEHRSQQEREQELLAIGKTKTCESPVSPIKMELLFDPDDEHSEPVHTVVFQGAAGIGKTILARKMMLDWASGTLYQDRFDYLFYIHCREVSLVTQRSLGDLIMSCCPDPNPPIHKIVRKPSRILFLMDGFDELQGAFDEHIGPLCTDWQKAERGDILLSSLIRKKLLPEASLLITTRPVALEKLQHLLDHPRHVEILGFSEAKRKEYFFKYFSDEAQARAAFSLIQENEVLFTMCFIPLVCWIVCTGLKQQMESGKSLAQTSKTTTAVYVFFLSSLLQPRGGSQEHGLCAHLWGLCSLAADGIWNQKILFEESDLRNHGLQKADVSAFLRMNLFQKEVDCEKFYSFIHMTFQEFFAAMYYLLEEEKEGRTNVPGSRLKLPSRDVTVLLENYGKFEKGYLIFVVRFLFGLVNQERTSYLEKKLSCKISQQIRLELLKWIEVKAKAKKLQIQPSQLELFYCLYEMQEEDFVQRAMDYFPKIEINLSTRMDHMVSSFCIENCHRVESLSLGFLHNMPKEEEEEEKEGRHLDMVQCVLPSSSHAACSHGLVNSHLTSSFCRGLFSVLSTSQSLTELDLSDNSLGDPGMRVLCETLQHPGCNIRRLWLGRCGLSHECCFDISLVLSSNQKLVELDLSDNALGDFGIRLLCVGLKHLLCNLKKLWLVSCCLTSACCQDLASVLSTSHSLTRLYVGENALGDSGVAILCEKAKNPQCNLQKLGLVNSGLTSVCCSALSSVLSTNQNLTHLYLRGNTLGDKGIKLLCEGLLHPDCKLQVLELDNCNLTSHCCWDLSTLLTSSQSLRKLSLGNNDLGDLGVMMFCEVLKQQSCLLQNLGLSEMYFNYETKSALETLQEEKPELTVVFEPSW

For CN1CCC[C@@H](Nc2nnc(-c3ccc(C(F)(F)F)cc3CC(F)(F)F)c3cccn23)C1 [Compound 40, N-[(3R)-1-methylpiperidin-3-yl]-1-[2-(2,2,2-trifluoroethyl)-4-(trifluoromethyl)phenyl]pyrrolo[1,2-d][1,2,4]triazin-4-amine], which IC50 is on record?
The IC50 was < 1 nM.

C[C@]1(O)C[C@@H](Nc2nnc(-c3ccc(C(F)(F)F)cc3CC(F)(F)F)c3cccn23)C1 [Compound 41, (1s,3s)-1-methyl-3-({1-[2-(2,2,2-trifluoroethyl)-4-(trifluoromethyl)phenyl]pyrrolo[1,2-d][1,2,4]triazin-4-yl}amino)cyclobutan-1-ol] was tested. Which IC50 did it give?
The IC50 was 1 to 10 nM.

CCc1ccc(-c2nnc(N[C@@H]3CCCN(C)C3)n3cccc23)c(OC(F)(F)F)c1 [Compound 42, 1-[4-ethyl-2-(trifluoromethoxy)phenyl]-N-[(3R)-1-methylpiperidin-3-yl]pyrrolo[1,2-d][1,2,4]triazin-4-amine] was tested. Which IC50 did it give?
The IC50 was 1 to 10 nM.

How did the IC50 turn out when CCOc1ccc(-c2nnc(N[C@@H]3CCCN(C)C3)n3cccc23)c(OC(F)(F)F)c1 [Compound 43, 1-[4-ethoxy-2-(trifluoromethoxy)phenyl]-N-[(3R)-1-methylpiperidin-3-yl]pyrrolo[1,2-d][1,2,4]triazin-4-amine] was run?
The IC50 was 10 to 100 nM.

How did the IC50 turn out when CN1CCC[C@@H](Nc2nnc(-c3ccc(OC(F)F)cc3OC(F)(F)F)c3cccn23)C1 [Compound 44, 1-[4-(difluoromethoxy)-2-(trifluoromethoxy)phenyl]-N-[(3R)-1-methylpiperidin-3-yl]pyrrolo[1,2-d][1,2,4]triazin-4-amine] was run?
Its IC50 is < 1 nM.

Cc1ccc(-c2nnc(N[C@@H]3CCCN(CCO)C3)n3cccc23)c(OC(F)F)c1 [Compound 45, 2-[(3R)-3-({1-[2-(difluoromethoxy)-4-methylphenyl]pyrrolo[1,2-d][1,2,4]triazin-4-yl}amino)piperidin-1-yl]ethan-1-ol] was tested. Which IC50 did it give?
Its IC50 is 10 to 100 nM.

With CCN1CC[C@H](O)[C@@H](Nc2nnc(-c3ccc(C(F)(F)F)cc3OC(F)F)c3cccn23)C1 [Compound 46, (3S,4S)-3-({1-[2-(difluoromethoxy)-4-(trifluoromethyl)phenyl]pyrrolo[1,2-d][1,2,4]triazin-4-yl}amino)-1-ethylpiperidin-4-ol] as the molecule, how does the IC50 read?
The IC50 was 10 to 100 nM.

How did the IC50 turn out when COc1ccc(-c2nnc(N[C@@H]3CCCN(C)C3)n3cccc23)c(Br)c1 [Compound 47, 1-(2-bromo-4-methoxyphenyl)-N-[(3R)-1-methylpiperidin-3-yl]pyrrolo[1,2-d][1,2,4]triazin-4-amine] was run?
The IC50 was 10 to 100 nM.

CCN1CC[C@@H](O)[C@@H](Nc2nnc(-c3ccc(C(F)(F)F)cc3OC(F)F)c3cccn23)C1 [Compound 48, (3S,4R)-3-({1-[2-(difluoromethoxy)-4-(trifluoromethyl)phenyl]pyrrolo[1,2-d][1,2,4]triazin-4-yl}amino)-1-ethylpiperidin-4-ol] was tested. Which IC50 did it give?
Its IC50 is < 1 nM.

Cc1cc(C(F)(F)F)cc(OC(F)F)c1-c1nnc(N[C@@H]2CCCN(C)C2)n2cccc12 [Compound 49, 1-[2-(difluoromethoxy)-6-methyl-4-(trifluoromethyl)phenyl]-N-[(3R)-1-methylpiperidin-3-yl]pyrrolo[1,2-d][1,2,4]triazin-4-amine] was tested. Which IC50 did it give?
Its IC50 is 10 to 100 nM.

For CCN1CCC[C@@H](Nc2nnc(-c3ccc(OC)cc3OC(F)(F)F)c3c(F)ccn23)C1 [Compound 50, N-[(3R)-1-ethylpiperidin-3-yl]-8-fluoro-1-[4-methoxy-2-(trifluoromethoxy)phenyl]pyrrolo[1,2-d][1,2,4]triazin-4-amine], which IC50 is on record?
Its IC50 is < 1 nM.

Which IC50 does the source give for COc1ccc(-c2nnc(N[C@@H]3CCCN(CCO)C3)n3ccc(F)c23)c(OC(F)(F)F)c1 [Compound 51, 2-[(3R)-3-({8-fluoro-1-[4-methoxy-2-(trifluoromethoxy)phenyl]pyrrolo[1,2-d][1,2,4]triazin-4-yl}amino)piperidin-1-yl]ethan-1-ol] here?
The IC50 was 1 to 10 nM.

Which IC50 does the source give for COc1ccc(-c2nnc(N[C@@H]3C[C@@H](F)CN(C)C3)n3ccc(F)c23)c(OC(F)(F)F)c1 [Compound 52, 8-fluoro-N-[(3R,5R)-5-fluoro-1-methylpiperidin-3-yl]-1-[4-methoxy-2-(trifluoromethoxy)phenyl]pyrrolo[1,2-d][1,2,4]triazin-4-amine] here?
Its IC50 is 1 to 10 nM.

Which IC50 does the source give for CCN1C[C@H](F)C[C@@H](Nc2nnc(-c3ccc(OC)cc3OC(F)(F)F)c3c(F)ccn23)C1 [Compound 53, N-[(3R,5R)-1-ethyl-5-fluoropiperidin-3-yl]-8-fluoro-1-[4-methoxy-2-(trifluoromethoxy)phenyl]pyrrolo[1,2-d][1,2,4]triazin-4-amine] here?
Its IC50 is 1 to 10 nM.

With COc1ccc(-c2nnc(N[C@H]3C[C@@](C)(O)C3)n3ccc(F)c23)c(OC(F)(F)F)c1 [Compound 54, (1s,3s)-3-({8-fluoro-1-[4-methoxy-2-(trifluoromethoxy)phenyl]pyrrolo[1,2-d][1,2,4]triazin-4-yl}amino)-1-methylcyclobutan-1-ol] as the molecule, how does the IC50 read?
The IC50 was 10 to 100 nM.

How did the IC50 turn out when COc1ccc(-c2nnc(N[C@@H]3CCCN(C)C3)n3ccc(F)c23)c(OC(F)F)c1 [Compound 55, 1-[2-(difluoromethoxy)-4-methoxyphenyl]-8-fluoro-N-[(3R)-1-methylpiperidin-3-yl]pyrrolo[1,2-d][1,2,4]triazin-4-amine] was run?
Its IC50 is 10 to 100 nM.

With CCN1CCC[C@@H](Nc2nnc(-c3ccc(OC)cc3OC(F)F)c3c(F)ccn23)C1 [Compound 56, 1-[2-(difluoromethoxy)-4-methoxyphenyl]-N-[(3R)-1-ethylpiperidin-3-yl]-8-fluoropyrrolo[1,2-d][1,2,4]triazin-4-amine] as the molecule, how does the IC50 read?
Its IC50 is < 1 nM.

For COc1ccc(-c2nnc(N[C@@H]3CCCN(CCO)C3)n3ccc(F)c23)c(OC(F)F)c1 [Compound 57, 2-[(3R)-3-({1-[2-(difluoromethoxy)-4-methoxyphenyl]-8-fluoropyrrolo[1,2-d][1,2,4]triazin-4-yl}amino)piperidin-1-yl]ethan-1-ol], which IC50 is on record?
Its IC50 is 10 to 100 nM.

With COc1ccc(-c2nnc(N[C@H]3C[C@@](C)(O)C3)n3ccc(F)c23)c(OC(F)F)c1 [Compound 58, (1s,3s)-3-({1-[2-(difluoromethoxy)-4-methoxyphenyl]-8-fluoropyrrolo[1,2-d][1,2,4]triazin-4-yl}amino)-1-methylcyclobutan-1-ol] as the molecule, how does the IC50 read?
Its IC50 is 10 to 100 nM.

For CCN1CCC[C@@H](Nc2nnc(-c3ccc(OC)cc3OC(F)(F)F)c3cccn23)C1 [Compound 59], which IC50 is on record?
The IC50 was < 1 nM.

With COc1ccc(-c2nnc(N[C@@H]3C[C@@H](F)CN(C)C3)n3cccc23)c(OC(F)(F)F)c1 [Compound 60, N-[(3R,5R)-5-fluoro-1-methylpiperidin-3-yl]-1-[4-methoxy-2-(trifluoromethoxy)phenyl]pyrrolo[1,2-d][1,2,4]triazin-4-amine] as the molecule, how does the IC50 read?
The IC50 was 1 to 10 nM.

With COc1ccc(-c2nnc(N[C@@H]3CCCN(CCO)C3)n3cccc23)c(OC(F)(F)F)c1 [Compound 61, 2-[(3R)-3-({1-[4-methoxy-2-(trifluoromethoxy)phenyl]pyrrolo[1,2-d][1,2,4]triazin-4-yl}amino)piperidin-1-yl]ethan-1-ol] as the molecule, how does the IC50 read?
Its IC50 is < 1 nM.

How did the IC50 turn out when COc1ccc(-c2nnc(N[C@@H]3CCC[C@H](O)C3)n3cccc23)c(OC(F)(F)F)c1 [Compound 62, (1S,3R)-3-({1-[4-methoxy-2-(trifluoromethoxy)phenyl]pyrrolo[1,2-d][1,2,4]triazin-4-yl}amino)cyclohexan-1-ol] was run?
The IC50 was 10 to 100 nM.

For C[C@@H](O)CNc1nnc(-c2ccc(C(F)(F)F)cc2OC(F)F)c2cccn12 [Compound 63, (2R)-1-({1-[2-(difluoromethoxy)-4-(trifluoromethyl)phenyl]pyrrolo[1,2-d][1,2,4]triazin-4-yl}amino)propan-2-ol], which IC50 is on record?
Its IC50 is 1 to 10 nM.

COc1ccc(-c2nnc(NCCO)n3cccc23)c(OC(F)(F)F)c1 [Compound 64, 2-({1-[4-methoxy-2-(trifluoromethoxy)phenyl]pyrrolo[1,2-d][1,2,4]triazin-4-yl}amino)ethan-1-ol] was tested. Which IC50 did it give?
The IC50 was 10 to 100 nM.

Which IC50 does the source give for COc1ccc(-c2nnc(NC[C@H](C)O)n3cccc23)c(OC(F)(F)F)c1 [Compound 65, (2S)-1-({1-[4-methoxy-2-(trifluoromethoxy)phenyl]pyrrolo[1,2-d][1,2,4]triazin-4-yl}amino)propan-2-ol] here?
Its IC50 is 10 to 100 nM.

With COc1ccc(-c2nnc(NCC(C)(C)O)n3cccc23)c(OC(F)(F)F)c1 [Compound 66, 1-({1-[4-methoxy-2-(trifluoromethoxy)phenyl]pyrrolo[1,2-d][1,2,4]triazin-4-yl}amino)-2-methylpropan-2-ol] as the molecule, how does the IC50 read?
The IC50 was 10 to 100 nM.

Which IC50 does the source give for COc1ccc(-c2nnc(NC3CCOCC3)n3cccc23)c(OC(F)(F)F)c1 [Compound 67, 1-[4-methoxy-2-(trifluoromethoxy)phenyl]-N-(oxan-4-yl)pyrrolo[1,2-d][1,2,4]triazin-4-amine] here?
Its IC50 is 1 to 10 nM.

With COc1ccc(-c2nnc(N[C@@H]3CCOC3)n3cccc23)c(OC(F)(F)F)c1 [Compound 68, 1-[4-methoxy-2-(trifluoromethoxy)phenyl]-N-[(3R)-oxolan-3-yl]pyrrolo[1,2-d][1,2,4]triazin-4-amine] as the molecule, how does the IC50 read?
Its IC50 is 10 to 100 nM.

COc1ccc(-c2nnc(NCc3nccn3C)n3cccc23)c(OC(F)(F)F)c1 [Compound 69, 1-[4-methoxy-2-(trifluoromethoxy)phenyl]-N-[(1-methyl-1H-imidazol-2-yl)methyl]pyrrolo[1,2-d][1,2,4]triazin-4-amine] was tested. Which IC50 did it give?
Its IC50 is 10 to 100 nM.

COc1ccc(-c2nnc(NC[C@@H](C)O)n3cccc23)c(OC(F)(F)F)c1 [Compound 70, (2R)-1-({1-[4-methoxy-2-(trifluoromethoxy)phenyl]pyrrolo[1,2-d][1,2,4]triazin-4-yl}amino)propan-2-ol] was tested. Which IC50 did it give?
Its IC50 is 1 to 10 nM.

How did the IC50 turn out when COc1ccc(-c2nnc(N[C@H]3C[C@@](C)(O)C3)n3cccc23)c(C(F)(F)F)c1 [Compound 71, (1s,3s)-3-({1-[4-methoxy-2-(trifluoromethyl)phenyl]pyrrolo[1,2-d][1,2,4]triazin-4-yl}amino)-1-methylcyclobutan-1-ol] was run?
The IC50 was 1 to 10 nM.

How did the IC50 turn out when COc1ccc(-c2nnc(N[C@H]3C[C@@](C)(O)C3)n3cccc23)c(Cl)c1 [Compound 72, (1s,3s)-3-{[1-(2-chloro-4-methoxyphenyl)pyrrolo[1,2-d][1,2,4]triazin-4-yl]amino}-1-methylcyclobutan-1-ol] was run?
Its IC50 is 10 to 100 nM.

From patent publication US20250179078A1, “INHIBITORS OF NLRP3” (PTC THERAPEUTICS, INC., priority 2022, published 2025)
